Data: PubChem BioAssay AID248 (DTP/NCI, 2004)
“And” between values parts separate entries of the source, which are not always exact repeats. Equal entries are not always repeated. Toxic doses and inconclusive results are not listed. Rule as the data show it: active = T/C of 150% or more; inactive = T/C below 125%.

Tested on: L1210 leukemia ip in BDF1 mice, survival T/C
Assay: NCI In Vivo Anticancer Drug Screen. Data for tumor model L1210 Leukemia (intraperitoneal) in B6D2F1 (BDF1) mice
Settings: endpoint: mean survival time, higher = longer survival
Procedure, shortened: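 Mice bearing the transplanted tumor received compound or vehicle. Survival of the treated group was divided by that of the vehicle-treated control group to give the ratio.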

[1] = dose: 100.0 mg/kg/injection, schedule: Q01DX009 (ip), vehicle: saline with Tween-80
[2] = dose: 100.0 mg/kg/injection, schedule: Q04DX003 (ip), vehicle: saline with Tween-80
[3] = dose: 200.0 mg/kg/injection, schedule: Q01DX009 (ip), vehicle: saline with Tween-80
[4] = dose: 200.0 mg/kg/injection, schedule: Q04DX003 (ip), vehicle: saline with Tween-80
[5] = dose: 400.0 mg/kg/injection, schedule: Q04DX003 (ip), vehicle: saline with Tween-80
[6] = dose: 100.0 mg/kg/injection, schedule: Q04DX003 (ip), vehicle: saline
[7] = dose: 200.0 mg/kg/injection, schedule: Q04DX003 (ip), vehicle: saline
[8] = dose: 50.0 mg/kg/injection, schedule: Q04DX003 (ip), vehicle: saline
[9] = dose: 100.0 mg/kg/injection, schedule: Q01DX001 (ip), vehicle: saline
[10] = dose: 100.0 mg/kg/injection, schedule: Q01DX009 (ip), vehicle: saline
[11] = dose: 200.0 mg/kg/injection, schedule: Q01DX001 (ip), vehicle: saline
[12] = dose: 120.0 mg/kg/injection, schedule: Q01DX Z (ip), vehicle: carboxymethylcellulose (CMC)
[13] = dose: 400.0 mg/kg/injection, schedule: Q01DX001 (ip), vehicle: saline
[14] = dose: 400.0 mg/kg/injection, schedule: Q04DX003 (ip), vehicle: saline
[15] = dose: 100.0 mg/kg/injection, schedule: Q04DX003 (ip), vehicle: Klucel (hydroxypropylcellulose) (HPC)
[16] = dose: 200.0 mg/kg/injection, schedule: Q04DX003 (ip), vehicle: Klucel (hydroxypropylcellulose) (HPC)
[17] = dose: 400.0 mg/kg/injection, schedule: Q04DX003 (ip), vehicle: Klucel (hydroxypropylcellulose) (HPC)

Measured: T/C

CCC1C(=O)CCN(C)C1c1cc2ccccc2[nH]1 (configuration not stated)
inactive: dose: 100.0 mg/kg/injection, schedule: Q01DX001 (ip), vehicle: carboxymethylcellulose (CMC) 105 % of control | dose: 200.0 mg/kg/injection, schedule: Q01DX001 (ip), vehicle: carboxymethylcellulose (CMC) 91 % of control

CCOC(=O)C(Cc1c(C)c(OC)c(CC(C(=O)OCC)C(=O)OCC)c(C)c1OC)C(=O)OCC
inactive: [1] 101 % of control | [2] 93 % of control | [3] 97 % of control | [4] 88 % of control | dose: 400.0 mg/kg/injection, schedule: Q01DX009 (ip), vehicle: saline with Tween-80 92 % of control | [5] 90 % of control

CC(=O)OC1CCC2C3CCc4cc(OC(=S)N(C)C)ccc4C3CCC12C (configuration not stated)
inactive: [2] 101 % of control | [4] 101 % of control | [5] 110 % of control

O=c1nccc[nH]1
inactive: [6] 97 % of control | [7] 97 % of control

CCC(C)n1ncc2c(N(C)C)ncnc21 (configuration not stated)
inactive: dose: 50.0 mg/kg/injection, schedule: Q01DX009 (ip), vehicle: saline 103 % of control | [8] 105 % of control | [9] 98 % of control | [10] 115 % of control | [6] 105 % of control | [11] 102 % of control | [7] 107 % of control

O=C(Nc1ccc(O)cc1)Nc1ccc(O)cc1
inactive: dose: 37.5 mg/kg/injection, schedule: Q01DX Z (ip), vehicle: carboxymethylcellulose (CMC) 103 % of control | dose: 53.0 mg/kg/injection, schedule: Q01DX Z (ip), vehicle: carboxymethylcellulose (CMC) 92 % of control | dose: 53.0 mg/kg/injection, schedule: Q01DX Z (ip), vehicle: other 105 % of control | dose: 75.0 mg/kg/injection, schedule: Q01DX Z (ip), vehicle: carboxymethylcellulose (CMC) 115 % of control | dose: 80.0 mg/kg/injection, schedule: Q01DX Z (ip), vehicle: carboxymethylcellulose (CMC) 93 % of control | dose: 80.0 mg/kg/injection, schedule: Q01DX Z (ip), vehicle: other 102 % of control | [12] 92 % of control | dose: 120.0 mg/kg/injection, schedule: Q01DX Z (ip), vehicle: other 103 % of control | dose: 150.0 mg/kg/injection, schedule: Q01DX Z (ip), vehicle: carboxymethylcellulose (CMC) 103 % of control | dose: 180.0 mg/kg/injection, schedule: Q01DX Z (ip), vehicle: carboxymethylcellulose (CMC) 89 % of control | dose: 180.0 mg/kg/injection, schedule: Q01DX Z (ip), vehicle: other 102 % of control | dose: 270.0 mg/kg/injection, schedule: Q01DX Z (ip), vehicle: other 103 % of control | dose: 300.0 mg/kg/injection, schedule: Q01DX Z (ip), vehicle: carboxymethylcellulose (CMC) 98 % of control | dose: 404.0 mg/kg/injection, schedule: Q01DX Z (ip), vehicle: other 105 % of control

C(=N\Nc1c2ccccc2nc2ccccc12)/c1ccc2c(c1)OCO2
inactive: [9] 89 % of control | [11] 100 % of control | [13] 89 % of control

O=C(O)C1CC=CCC1c1c2ccc(=O)cc-2oc2cc(O)ccc12 (configuration not stated)
inactive: [6] 98 % of control | [7] 94 % of control | [14] 91 % of control

CCC1(c2ccccc2)NC(=O)NC1=O (configuration not stated)
inactive: [1] 102 % of control | [3] 100 % of control

CC(CC(=O)c1ccc2ccccc2c1)C(=O)O (configuration not stated)
inactive: dose: 75.0 mg/kg/injection, schedule: Q04DX003 (ip), vehicle: Klucel (hydroxypropylcellulose) (HPC) 97 % of control | dose: 150.0 mg/kg/injection, schedule: Q04DX003 (ip), vehicle: Klucel (hydroxypropylcellulose) (HPC) 92 % of control | dose: 300.0 mg/kg/injection, schedule: Q04DX003 (ip), vehicle: Klucel (hydroxypropylcellulose) (HPC) 107 % of control

CCCCCCCCCCCCCCCCCC[Se]CCCCCCCCCCCCCCCCCC
inactive: [2] 88 % of control | [4] 92 % of control | [5] 93 % of control

CCOC(=O)COc1cc(Cl)c(S(=O)(=O)F)cc1Cl
inactive: [15] 96 % of control | [16] 104 % of control | [17] 91 % of control

CC[C@H](CC[C@@H](C)[C@H]1CC[C@H]2[C@@H]3CC=C4C[C@@H](O)CC[C@]4(C)[C@H]3CC[C@]12C)C(C)C
inactive: dose: 12.5 mg/kg/injection, schedule: Q01DX001 (ip), vehicle: saline 93 % of control | dose: 12.5 mg/kg/injection, schedule: Q04DX003 (ip), vehicle: saline 98 % of control | dose: 25.0 mg/kg/injection, schedule: Q01DX001 (ip), vehicle: saline 94 % of control | dose: 25.0 mg/kg/injection, schedule: Q04DX003 (ip), vehicle: saline 105 % of control | dose: 50.0 mg/kg/injection, schedule: Q01DX001 (ip), vehicle: saline 88 % of control | [8] 98 % of control | dose: 75.0 mg/kg/injection, schedule: Q04DX003 (ip), vehicle: saline 89 % of control | [9] 89 % of control and 95 % of control | dose: 115.0 mg/kg/injection, schedule: Q04DX003 (ip), vehicle: saline 91 % of control | dose: 170.0 mg/kg/injection, schedule: Q04DX003 (ip), vehicle: saline 87 % of control | [11] 97 % of control | dose: 255.0 mg/kg/injection, schedule: Q04DX003 (ip), vehicle: saline with Tween-80 90 % of control | dose: 385.0 mg/kg/injection, schedule: Q04DX003 (ip), vehicle: saline with Tween-80 96 % of control | [13] 104 % of control and 107 % of control

NC1CCC(C(=O)O)NC1 (configuration not stated)
inactive: [6] 104 % of control | [7] 107 % of control | [14] 109 % of control

Fc1ccc(/C=N\N=C(N/N=C/c2ccc(F)cc2)N/N=C/c2ccc(F)cc2)cc1
inactive: dose: 12.5 mg/kg/injection, schedule: Q04DX003 (ip), vehicle: saline with Tween-80 101 % of control | dose: 15.0 mg/kg/injection, schedule: Q01DX Z (ip), vehicle: carboxymethylcellulose (CMC) 97 % of control | dose: 25.0 mg/kg/injection, schedule: Q04DX003 (ip), vehicle: saline with Tween-80 101 % of control | dose: 30.0 mg/kg/injection, schedule: Q01DX Z (ip), vehicle: carboxymethylcellulose (CMC) 97 % of control | dose: 30.0 mg/kg/injection, schedule: Q01DX Z (oral), vehicle: carboxymethylcellulose (CMC) 100 % of control | dose: 50.0 mg/kg/injection, schedule: Q04DX003 (ip), vehicle: saline with Tween-80 104 % of control | dose: 60.0 mg/kg/injection, schedule: Q01DX Z (ip), vehicle: carboxymethylcellulose (CMC) 101 % of control | dose: 60.0 mg/kg/injection, schedule: Q01DX Z (oral), vehicle: carboxymethylcellulose (CMC) 93 % of control and 100 % of control | [15] 90 % of control | [12] 89 % of control | dose: 120.0 mg/kg/injection, schedule: Q01DX Z (oral), vehicle: carboxymethylcellulose (CMC) 98 % of control and 100 % of control | [16] 100 % of control | dose: 240.0 mg/kg/injection, schedule: Q01DX Z (oral), vehicle: carboxymethylcellulose (CMC) 102 % of control and 105 % of control | [17] 87 % of control

CC(=O)Nc1ccc(/C=N\N=C\c2ccc(NC(C)=O)cc2)cc1
inactive: [10] 88 % of control | [6] 100 % of control | dose: 200.0 mg/kg/injection, schedule: Q01DX009 (ip), vehicle: saline 86 % of control | [7] 105 % of control | [14] 100 % of control
